Laboratory results taken from patent US4492711A, “Benzamides, their salts, and pharmaceutical compositions containing them” (SANOFI, priority 1982, dated 1985).

Legend:
[1] = biological target: T1, gastric histamine H2 receptors (Rattus norvegicus, UniProt P25102); assay: Antagonism of gastric hypersecretion induced by histamine in the atropinized rat (Ghosh and Schild modified according to Black et al.); format: in vivo; conditions: intravenous; for Relative potency (cimetidine = 1): ID50-based, compared to cimetidine; for ED50: single dose, histamine i.v. infusion 15 mcmol/kg/hour, read-out: ID50 (dose which inhibits by 50% the gastric hypersecretion induced by histamine)
T1 construct: the gastric secretion is measured by perfusion of a physiological solution at a constant speed in the stomach of the animal; from tissue; host or cells: stomach of the living atropinized rat (in vivo, perfused stomach)
Procedure: According to this test, a gastric acid hypersecretion is induced by intravenous infusion of a sub-maximal dose of histamine equivalent to 15 mcmol/kg/hour and the gastric secretion is measured by perfusion of a physiological solution at a constant speed in the stomach of the animal.
The ID50 represents the index of the gastric H2 -blocking action.

[2] = test system: hypersecretion induced by dimaprit; assay: Antisecretory activity in the cat bearing a gastric fistula, dimaprit-induced hypersecretion (Emas et al.); format: in vivo; conditions: cat with gastric fistula, intragastric
Source text: The antisecretoy activity of the products of the present invention has been evaluated in the cat bearing a gastric fistula according to the method of Emas et al (Gastroenterology, 1960, 39, 771) by using, as hypersecretory agent, dimaprit at the dose of 640 mcg/kg/k.

[3] = test system: gastric acid secretion; conditions: as oxalate; cited from earlier work

T1 sequence (P25102 whole entry, the tested form may be a part): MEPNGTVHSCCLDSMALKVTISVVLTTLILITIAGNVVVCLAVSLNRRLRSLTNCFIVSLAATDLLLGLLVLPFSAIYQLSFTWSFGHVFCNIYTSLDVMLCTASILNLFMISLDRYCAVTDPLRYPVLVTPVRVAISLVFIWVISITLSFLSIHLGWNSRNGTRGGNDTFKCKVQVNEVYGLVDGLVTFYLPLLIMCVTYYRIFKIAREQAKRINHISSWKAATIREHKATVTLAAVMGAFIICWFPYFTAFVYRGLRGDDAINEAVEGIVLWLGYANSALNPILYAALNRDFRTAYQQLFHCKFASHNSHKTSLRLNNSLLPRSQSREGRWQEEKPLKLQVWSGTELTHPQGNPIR

| SMILES | Relative potency (cimetidine = 1) [1] | ED50 [1] [µmol/kg] | antagonism of the hypersecretion induced by dimaprit ([2]; an hour before dimaprit perfusion (640 mcg/kg/k)) | activity relative to cimetidine against hypersecretion induced by dimaprit ([2]; an hour before dimaprit perfusion, cimetidine as reference) | ED50, gastric acid secretion inhibiting activity in the rat [3] [mg/kg] |
| --- | --- | --- | --- | --- | --- |
| CNC(=C[N+](=O)[O-])NCCSCc1ccc(CN(C)C)o1 [Ranitidine, N-[2-[[5-[(dimethylamino)methyl]furfuryl]thio]ethyl]-N'-methyl-2-nitro-1,1-ethenediamine, reference compound] | 3.80 |  |  |  |  |
| CNC(=C[N+](=O)[O-])Nc1cccc(C(=O)NCCSCc2ccc(CN(C)C)o2)c1 [SR 58028 A, 3-[N-(1-methylamino-2-nitroethenyl)amino]-N-[2-(5-dimethylaminomethylfuran-2-ylmethylthio)ethyl]benzamide] | 4.13 | 0.23 |  |  |  |
| CNC(=S)Nc1cccc(C(=O)NCCSCc2ccc(CN(C)C)o2)c1 [SR 57914, 3-(3-methylthioureido)-N-[2-(5-dimethylaminomethylfuran-2-ylmethylthio)ethyl]benzamide] | 2.11 | 0.45 | antagonizes in dose depending way the hypersecretion induced by dimaprit | at least equal to that of cimetidine |  |
| CN(C)Cc1ccc(CSCCNC(=O)c2ccc(S(N)(=O)=O)cc2)o1 [Compound A, N-[2-(5-dimethylaminomethylfuran-2-ylmethylthio)ethyl]4-sulfamoylbenzamide, reference compound] | 0.42 |  |  |  | 2.54 |

Second part, led by results:

| Relative potency (cimetidine = 1) [1] | ED50 [1] [µmol/kg] | SMILES | antagonism of the hypersecretion induced by dimaprit ([2]; an hour before dimaprit perfusion (640 mcg/kg/k)) | activity relative to cimetidine against hypersecretion induced by dimaprit ([2]; an hour before dimaprit perfusion, cimetidine as reference) | ED50, gastric acid secretion inhibiting activity in the rat [3] [mg/kg] |
| --- | --- | --- | --- | --- | --- |
| 1.90 | 0.5 | CNC(=NC#N)Nc1cccc(C(=O)NCCSCc2ccc(CN(C)C)o2)c1 [SR 57970, 3-(2-cyano-3-methylguanidino)-N-[2-(5-dimethylaminomethylfuran-2-ylmethylthio)ethyl]benzamide] |  |  |  |
| 0.62 | 1.53 | CNC(=O)Nc1cccc(C(=O)NCCSCc2ccc(CN(C)C)o2)c1 [SR 57934, 3-(3-methylureido)-N-[2-(5-dimethylaminomethylfuran-2-ylmethylthio)ethyl]benzamide] |  |  |  |
